Measured values published in patent US20150105252A1, “SUBSTITUTED PYRAZOLES AS HERBICIDES” (E I DU PONT DE NEMOURS AND COMPANY, priority 2013, published 2015).

Tests used:
[1] = tested on: barnyardgrass; test: Test C preemergence; assay type: in vivo, Echinochloa crus-galli; settings: for Plant response rating (scale of 0 to 100), Barnyardgrass: 250 g ai/ha
Method in brief: (§1)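 Visual control ratings on a 0–100 scale (100 = complete control) made against untreated controls after 13 to 15 days in greenhouse. Compounds applied in surfactant-containing solvent mixture, either preemergence to loam/sand-sown seeds or postemergence to 1- to 4-leaf plants (2–18 cm) in peat medium.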

[2] = tested on: corn; test: Test A preemergence; assay type: in vivo, Zea mays
Method in brief: (§2)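 Growth medium: loam soil blended with sand. Preemergence treatment used a directed soil spray right after planting; postemergence treatment targeted seedlings at one to two leaves (2–10 cm height). Response was judged by eye relative to untreated plants about 10 days later on a 0–100 control scale.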

[3] = tested on: morningglory; test: Test A postemergence; assay type: in vivo, Ipomoea spp.
Method in brief: as §2

[4] = tested on: barnyardgrass; test: Test A postemergence; assay type: in vivo, Echinochloa crus-galli
Method in brief: as §2

[5] = tested on: barnyardgrass; test: Test B flood; assay type: in vivo, Echinochloa crus-galli; settings: 250 g ai/ha, visual rating on 0 to 100 scale (0 no effect, 100 complete control), 13 to 15 days
Method in brief: (§3)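 Each compound is applied to the floodwater of pots holding 2-leaf seedlings, water standing 3 cm over the soil throughout. Plants stay in a greenhouse 13 to 15 days before visual scoring against controls from 0 (no effect) to 100 (complete control).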

[6] = tested on: nutsedge, yellow; test: Test C postemergence; assay type: in vivo, Cyperus esculentus; settings: for Plant response rating (scale of 0 to 100 where 0 is no effect and 100 is complete control), Nutsedge, Yellow: visually evaluated after 13 to 15 days; for Nutsedge, Yellow plant response rating: scale 0 to 100
Method in brief: as §1

[7] = tested on: foxtail, giant; test: Test A postemergence; assay type: in vivo, Setaria faberii
Method in brief: as §2

[8] = tested on: galium; test: Test C postemergence; assay type: in vivo, Galium aparine; settings: for Plant response rating (scale of 0 to 100 where 0 is no effect and 100 is complete control), Galium: visually evaluated after 13 to 15 days; for Galium plant response rating: scale 0 to 100
Method in brief: as §1

[9] = tested on: foxtail, giant; test: Test A preemergence; assay type: in vivo, Setaria faberii
Method in brief: as §2

[10] = tested on: crabgrass, large; test: Test A postemergence; assay type: in vivo, Digitaria sanguinalis
Method in brief: as §2

[11] = tested on: rice; test: Test B flood; assay type: in vivo, Oryza sativa; settings: 250 g ai/ha, visual rating on 0 to 100 scale (0 no effect, 100 complete control), 13 to 15 days
Method in brief: as §3

[12] = tested on: pigweed; test: Test C preemergence; assay type: in vivo, Amaranthus retroflexus; settings: for Plant response rating (scale of 0 to 100), Pigweed: 250 g ai/ha
Method in brief: as §1

[13] = tested on: crabgrass, large; test: Test C postemergence; assay type: in vivo, Digitaria sanguinalis; settings: for Plant response rating (scale of 0 to 100 where 0 is no effect and 100 is complete control), Crabgrass, Large: visually evaluated after 13 to 15 days; for Crabgrass, Large plant response rating: scale 0 to 100
Method in brief: as §1

[14] = preemergence, 31 g ai/ha, scale 0 to 100 (0 no effect, 100 complete control), 13 to 15 days
[15] = preemergence, 62 g ai/ha, 13 to 15 days, scale 0 to 100, 0 = no effect, 100 = complete control
[16] = preemergence, 125 g ai/ha, scale 0 to 100, 0 is no effect, 100 is complete control
[17] = Preemergence, 500 g ai/ha, 0 to 100 scale, 0 no effect, 100 complete control
[18] = preemergence, 125 g ai/ha, visual injury, 0 to 100 scale, approx. 10 days
[19] = Postemergence, 500 g ai/ha, visual rating after approx. 10 days, 0 to 100 scale (0 no effect, 100 complete control)
[20] = postemergence, 125 g ai/ha, about 10 days, visual rating on 0 to 100 scale (0 no effect, 100 complete control)
[21] = Postemergence, 125 g ai/ha, 0 to 100 scale, 0 no effect, 100 complete control
[22] = postemergence, 250 g ai/ha, scale 0 to 100 (0 no effect, 100 complete control)
[23] = postemergence, 125 g ai/ha, scale 0 to 100, 0 no effect, 100 complete control
[24] = Preemergence, 16 g ai/ha, scale 0 to 100
[25] = preemergence, 62 g ai/ha, scale 0 to 100 (0 no effect, 100 complete control), 13 to 15 days
[26] = preemergence, 500 g ai/ha, visual injury after approx. 10 days, 0 to 100 scale (0 no effect, 100 complete control)

SMILES | Plant response rating (scale of 0 to 100), Barnyardgrass ([1]; Preemergence) | Barnyardgrass plant response rating [1, 14] | Barnyardgrass plant response rating [1, 16] | Corn plant response rating [2, 18] | Morningglory plant response rating [3, 19] | Morningglory plant response rating [3, 20] | Barnyardgrass plant response rating [4, 19] | Plant response rating, Barnyardgrass [5] | Nutsedge, Yellow plant response rating ([6]; postemergence, 62 g ai/ha) | Plant response rating, Nutsedge, Yellow [6, 23] | Foxtail, Giant plant response rating [7, 19] | Foxtail, Giant plant response rating [7, 20] | Galium plant response rating ([8]; postemergence, 62 g ai/ha) | Plant response rating, Galium [8, 23] | Foxtail, Giant plant response rating [9, 18] | Crabgrass, Large plant response rating [10, 19] | Crabgrass, Large plant response rating [10, 20] | Plant response rating, Rice [11] | Pigweed plant response rating [12, 16] | Crabgrass, Large plant response rating ([13]; postemergence, 62 g ai/ha) | other results
CCc1cc(C(=O)NC2CC2)nn1Cc1ccnc(C(F)(F)F)c1 [Compound 76] | 100 | 95 | 100 | 50 | 100 | 70 | 90 | 20 | 5 | 5 | 100 | 80 | 75 | 90 | 80 | 100 | 80 | 20 | 100 | 10 | Plant response rating, Barnyardgrass [1, 15]: 100; Corn plant response rating [2, 17]: 80; Barnyardgrass plant response rating [4, 21]: 80; Plant response rating (scale of 0 to 100 where 0 is no effect and 100 is complete control), Nutsedge, Yellow ([6]; Postemergence, 31 g ai/ha): 5; Plant response rating, Nutsedge, Yellow [6, 22]: 5; Plant response rating (scale of 0 to 100 where 0 is no effect and 100 is complete control), Galium ([8]; Postemergence, 31 g ai/ha): 70; Plant response rating, Galium [8, 22]: 90; Foxtail, Giant plant response rating [9, 17]: 100; Plant response rating (scale of 0 to 100), Pigweed ([12]; Preemergence): 100; Pigweed plant response rating [12, 14]: 100; Plant response rating, Pigweed [12, 15]: 100; Plant response rating (scale of 0 to 100 where 0 is no effect and 100 is complete control), Crabgrass, Large ([13]; Postemergence, 31 g ai/ha): 5; Plant response rating, Crabgrass, Large [13, 22]: 70; Plant response rating, Crabgrass, Large [13, 23]: 70
CCCNC(=O)c1cc(CC)n(Cc2ccnc(C(F)(F)F)c2)n1 [Compound 75] |  | 100 | 100 | 80 | 100 | 100 | 90 | 40 | 5 | 10 | 100 | 90 | 60 | 65 | 100 | 100 | 100 | 35 | 100 | 25 | Plant response rating, Barnyardgrass [1, 24]: 60; Plant response rating, Barnyardgrass [1, 15]: 100; Corn plant response rating [2, 17]: 90; Barnyardgrass plant response rating [4, 21]: 90; Plant response rating (scale of 0 to 100), Nutsedge, Yellow ([6]; Postemergence, 16 g ai/ha): 0; Nutsedge, Yellow plant response rating ([6]; Postemergence, 31 g ai/ha): 5; Plant response rating (scale of 0 to 100), Galium ([8]; Postemergence, 16 g ai/ha): 50; Galium plant response rating ([8]; Postemergence, 31 g ai/ha): 60; Foxtail, Giant plant response rating [9, 17]: 100; Plant response rating, Pigweed [12, 24]: 85; Pigweed plant response rating [12, 14]: 100; Plant response rating, Pigweed [12, 15]: 100; Plant response rating (scale of 0 to 100), Crabgrass, Large ([13]; Postemergence, 16 g ai/ha): 20; Crabgrass, Large plant response rating ([13]; Postemergence, 31 g ai/ha): 20; Plant response rating, Crabgrass, Large [13, 23]: 80
CCc1cc(-c2ccc(C(F)(F)F)cc2)nn1Cc1ccnc(C(F)(F)F)c1 [Compound 110] | 90 | 25 | 65 | 80 | 100 | 100 | 90 | 30 | 10 | 10 | 100 | 90 | 60 | 90 | 100 | 100 | 70 | 35 | 100 | 40 | Barnyardgrass plant response rating [1, 25]: 30; Corn plant response rating [2, 26]: 90; Barnyardgrass plant response rating [4, 20]: 80; Plant response rating (scale of 0 to 100 where 0 is no effect and 100 is complete control), Nutsedge, Yellow ([6]; Postemergence, 31 g ai/ha): 5; Plant response rating, Nutsedge, Yellow [6, 22]: 10; Plant response rating (scale of 0 to 100 where 0 is no effect and 100 is complete control), Galium ([8]; Postemergence, 31 g ai/ha): 60; Foxtail, Giant plant response rating [9, 26]: 100; Plant response rating (scale of 0 to 100), Pigweed ([12]; Preemergence): 100; Pigweed plant response rating ([12]; preemergence, 31 g ai/ha, visual rating, scale 0 to 100 (0 no effect, 100 complete control), 13 to 15 days): 95; Pigweed plant response rating [12, 25]: 100; Plant response rating (scale of 0 to 100 where 0 is no effect and 100 is complete control), Crabgrass, Large ([13]; Postemergence, 31 g ai/ha): 35; Plant response rating, Crabgrass, Large [13, 22]: 60
